Measured values as given in patent US12447156B2, “Treating progressive familial intrahepatic cholestasis (PFIC) with IBAT inhibitors” (ALBIREO AB, priority 2020, dated 2025).
Values after ≈ are worked out from the molar mass of the structure shown.

What was measured:
[1] = Solubility of odevixibat in water; assay type: physicochemical; conditions: pH 7, 37° C.
Source text: It is desirable that the use of organic solvents in the preparation of the formulation is avoided. In some embodiments, water is used as the solvent for the preparation of the formulation. […] Because of this low solubility in water, aqueous suspensions of odevixibat can contain larger agglomerates of odevixibat, which may lead to an uneven distribution of the active pharmaceutical ingredient on the cores, i.e. the cores may contain different amounts of odevixibat, which in turn impacts dose uniformity. Accordingly, in some embodiments, the aqueous suspension of odevixibat is homogeneous. In some embodiments, a homogeneous aqueous suspension of odevixibat is sprayed onto the cores.

patients with PFIC [2] = assay: Pooled PEDFIC 1/2 (up to 72 weeks): serum bile acids, pruritus and sleep parameters, correlations, responders; assay type: in vivo, human
Method: Methods: PEDFIC 1 was a randomized, double-blind study in children with PFIC1 or PFIC2; patients received either once-daily placebo, odevixibat 40 μg/kg, or odevixibat 120 μg/k g for 24 weeks. PEDFIC 2 is an ongoing, 72 week extension study in patients with any type of PFIC in which all patients receive odevixibat 120 μg/kg/day. In both PEDFIC 1 and PEDFIC 2, eligible patients had elevated serum bile acids and significant pruritus at screening. Here, patient pruritus and sleep-related data (including tiredness during the day) were included, which were evaluated twice daily by caregivers using the validated PRUCISION scale via an electronic diary. Pruritus and tiredness responses range from 0 to 4, with higher scores indicating worse symptoms; other sleep assessments include questions with Yes/No response s. Correlations between percentage change from baseline in serum bile acids and change from baseline in observer-reported diary data (pruritus, sleep characteristics) were assessed as post hoc analyses and are summarized with Pearson coefficient s (r).

patients with PFIC [3] = assay: Pooled PEDFIC 1/2: relationships between changes in autotaxin, pruritus and serum bile acids (weeks 25-48); assay type: in vivo, human
Method: Phase 3 study data of 77 patients treated with odevisibat was pooled from the PEDFIC 1 and PEDFIC 2 studies. In PEDFIC 1, patients received placebo or odevixibat 40 or 120 μg/kg/day for 24 weeks; in PEFFIC 2, patients were enrolled in an ongoing extension study, with all patients receiving 120 μg/kg/day. At the data cutoff, 77 patients had received odevixibat. The median length of odevixibat treatment was 37 weeks, with a range of 1-108 weeks. Most patients (88%) were continuing on treatment. Characteristics of patients with available data at weeks 25-48 who were included in the current analyses were generally similar to the overall study population.
Autotaxin was assessed prior to treatment and throughout PEDFIC 1 and PEDFIC 2. Caregivers evaluated patients' pruritus using the validated PRUCISION scale, where scores range from 0 to 4; higher scores indicate worse symptoms. Serum bile acid measurements were taken at all study visits.
Relationships between changes from baseline to weeks 25-48 in autotaxin, pruritus, and serum bile acid levels were assessed as post hoc analyses. Changes from baseline were summarized descriptively. Pearson coefficients and P values were calculated for correlations. Responders were defined as ≥70% reduction from baseline in serum bile acids or serum bile acids ≤70 μmol/L at last assessment up to week 48 and/or pruritus score reduction of ≥1 point from baseline based on last available monthly or 12-week interval score up to week 48.
Values are based on last assessment up to week 48. For serum bile acids, this was the average value from weeks 46 and 48 when available; otherwise, the last available assessment in the interval was used. For pruritus, last monthly score was used when available; otherwise, the score from the last 12 weeks was used. For autotaxin, the last assessment within the interval was used.

[4] = patients analyzed in correlation analyses, N=44

Q: Which solubility [1] does the source give for CCCCC1(CCCC)CN(c2ccccc2)c2cc(SC)c(OCC(=O)N[C@@H](C(=O)N[C@@H](CC)C(=O)O)c3ccc(O)cc3)cc2S(=O)(=O)N1 [Odevixibat, 1,1-dioxo-3,3-dibutyl-5-phenyl-7-methylthio-8-(N-{(R)-α-[N-((S)-1-carboxypropyl)carbamoyl]-4-hydroxybenzyl}carbamoylmethoxy)-2,3,4,5-tetrahydro-1,2,5-benzothiadiazepine] here?
A: ~30 µg/mL (≈ 40.5 µM)

Q: What about the “overall incidence of any event of diarrhea” value (patients with PFIC [2]; pooled PEDFIC 1/2, 18/84 patients) of the same compound?
A: 21%

Q: What about the “patients with any TEAE” value (patients with PFIC [2]; pooled PEDFIC 1/2, 71 of 84 patients, up to 72 weeks) of the same compound?
A: 85%

Q: And the “TEAEs mild or moderate in severity” value (patients with PFIC [2]; pooled PEDFIC 1/2, 84 patients)?
A: 90%

Q: And the “serious drug-related TEAEs or deaths” value (patients with PFIC [2]; pooled PEDFIC 1/2, 84 patients)?
A: No serious drug-related TEAEs or deaths occurred

Q: What about the “patients who met criteria for serum bile acid response” value (patients with PFIC [2]; pooled PEDFIC 1/2, during odevixibat treatment (up to 72 weeks)) of the same compound?
A: approximately 40%

Q: What about the “Serum bile acids, Change From Baseline to Weeks 49-72, Mean” value (patients with PFIC [2]; pooled PEDFIC 1/2, n 32, baseline 246 μmol/L) of the same compound?
A: −53% (9%)

Q: What about the “Tiredness score, Change From Baseline to Weeks 49-72, Mean (SE)” value (patients with PFIC [2]; pooled PEDFIC 1/2, n 34, baseline 2.3) of the same compound?
A: −1.2 (0.2)

Q: What about the “Pruritus score, Change From Baseline to Weeks 49-72, Mean (SE)” value (patients with PFIC [2]; pooled PEDFIC 1/2, n 34, baseline 2.8) of the same compound?
A: −1.5 (0.2)

Q: And the “Number of awakenings, Change From Baseline to Weeks 49-72, Mean (SE)” value (patients with PFIC [2]; pooled PEDFIC 1/2, n 34, baseline 8)?
A: −7 (3)

Q: And the “Days taking medications to induce sleep, Change From Baseline to Weeks 49-72, Mean (SE)” value (patients with PFIC [2]; pooled PEDFIC 1/2, n 34, baseline 24)?
A: −3 (4) %

Q: And the “Days with scratching associated with bleeding, Change From Baseline to Weeks 49-72, Mean (SE)” value (patients with PFIC [2]; pooled PEDFIC 1/2, n 34, baseline 38)?
A: −21 (7) %

Q: What about the “Days patient slept with caregiver, Change From Baseline to Weeks 49-72, Mean (SE)” value (patients with PFIC [2]; pooled PEDFIC 1/2, n 34, baseline 67) of the same compound?
A: −38 (8) %

Q: What about the “Days patient needed soothing, Change From Baseline to Weeks 49-72, Mean (SE)” value (patients with PFIC [2]; pooled PEDFIC 1/2, n 34, baseline 75) of the same compound?
A: −48 (9) %

Q: What about the “Days patient needed help falling asleep, Change From Baseline to Weeks 49-72, Mean (SE)” value (patients with PFIC [2]; pooled PEDFIC 1/2, n 34, baseline 78) of the same compound?
A: −55 (8) %

Q: And the “patients achieving a treatment response (serum bile acid and/or pruritus criteria)” value (patients with PFIC [2]; pooled PEDFIC 1/2, up to 72 weeks)?
A: approximately 60%

Q: What about the tolerability (patients with PFIC [2]; up to 72 weeks of odevixibat treatment) of the same compound?
A: generally well tolerated

Q: And the “Autotaxin, percentage change from baseline to weeks 25-48, mean (SE)” value (patients with PFIC [3]; patients analyzed in correlation analyses, N=33)?
A: −50% (6%)

Q: What about the “Autotaxin, change from baseline to weeks 25-48, mean (SE)” value (patients with PFIC [3]; patients analyzed in correlation analyses, N=33, last assessment up to week 48) of the same compound?
A: −1696 (266) ng/ml

Q: And the “Serum bile acids, change from baseline to weeks 25-48, mean (SE)” value (patients with PFIC [3]; [4])?
A: −140 (25) μmol/L

Q: What about the “Serum bile acids, percentage change from baseline to weeks 25-48, mean (SE)” value (patients with PFIC [3]; [4]) of the same compound?
A: −49% (8%)

Q: And the “Pruritus score (range, 0-4), change from baseline to weeks 25-48, mean (SE)” value (patients with PFIC [3]; patients analyzed in correlation analyses, N=44, PRUCISION scale)?
A: −1.4 (0.2)

Q: What about the “effect on autotaxin, pruritus and serum bile acids” value (patients with PFIC [3]; patients with PFIC) of the same compound?
A: reduced autotaxin, pruritus, and serum bile acids
